Measured values as given in PubChem BioAssay (NCI).
Values joined by “and” are separate entries in the source; they are usually repeats but may differ in a detail not shown here. Equal entries are not always repeated.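 All cell lines were grown in 96-well plates and treated with compound for 48 hours. GI50: concentration for 50% inhibition of growth. TGI marks complete inhibition of growth.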

Columns and labels:
Assay in all cases: inhibition of tumour cell growth, NCI panel, 48 h
HS 578T breast = system: HS 578T breast
NCI/ADR-RES ovarian = system: NCI/ADR-RES ovarian
BT-549 breast = system: BT-549 breast
T-47D breast = system: T-47D breast
PC-3 prostate = system: PC-3 prostate
KM20L2 colon = system: KM20L2 colon
SNB-78 CNS = system: SNB-78 CNS
DMS 114 small cell lung = system: DMS 114 small cell lung

Row | Structure (SMILES) | GI50 (HS 578T breast) | TGI (HS 578T breast) | GI50 (NCI/ADR-RES ovarian) | TGI (NCI/ADR-RES ovarian) | GI50 (BT-549 breast) | TGI (BT-549 breast) | GI50 (T-47D breast) | TGI (T-47D breast) | GI50 (PC-3 prostate) | TGI (PC-3 prostate) | TGI (KM20L2 colon) | TGI (SNB-78 CNS) | TGI (DMS 114 small cell lung)
1 | O=C(N/N=C\c1cc(Cl)ccc1O)N/N=C/c1cc(Cl)ccc1O | 0.643 µM | > 100 µM | 2.48 µM | > 100 µM | > 100 µM | > 100 µM | 2.32 µM | > 100 µM | 2.96 µM | > 100 µM |  |  | 
2 | COc1cc(C=NCC(=O)CSC(c2ccccc2)c2ccccc2)cc(OC)c1OC | 19 µM | 59.4 µM | 7.36 µM | > 100 µM | 26.5 µM | 93.9 µM | 4.48 µM | 53.7 µM | 9.09 µM | > 100 µM |  |  | 
3 | CN(C)c1ccc(/C=N/Nc2ccc(-c3nc4ccccc4[nH]3)cc2)cc1 | 5.61 µM | 23.6 µM | 10.7 µM | 32 µM | 12.4 µM | 35.5 µM | 8.95 µM | 40.9 µM | 7.27 µM | > 50 µM |  |  | 
4 | O=C(O)CCN1C(=O)/C(=C/C(Cl)=C/c2ccccc2)SC1=S | 3.18 µM | 17.3 µM | 2.6 µM | 9.59 µM | 2.14 µM | 6.27 µM | 1.71 µM | 6.52 µM | 2.87 µM | 11.4 µM |  |  | 
5 | Cc1ccc(Nc2ccnc(Nc3cccc(C(N)=O)c3)n2)cc1O | 0.742 µM | 8.98 µM | > 18.7 µM | > 25 µM | 6.4 µM | > 25 µM | 4.74 µM | > 21.2 µM | 5.42 µM | > 25 µM |  |  | 
6 | CC(C)=CCC[C@](C)(O)[C@H]1CC[C@]2(C)[C@@H]1CC[C@@H]1[C@@]3(C)CC[C@H](OC(=O)CCC(=O)O)C(C)(C)[C@@H]3CC[C@]12C | 45.8 µM | > 100 µM | 30.4 µM | > 100 µM | > 100 µM | > 100 µM | 19.4 µM | > 100 µM | 8.79 µM | 28.4 µM |  |  | 
7 | COc1ccc(/C=C/CO)cc1OC |  |  |  |  |  |  |  |  |  |  | > 100 µM | > 100 µM | > 100 µM
8 | Nc1ccccc1C#Cc1ccccc1C#CCCCCO | 35.8 µM | > 100 µM | 14.4 µM | 39.4 µM | 23.2 µM | 76.5 µM | 30.3 µM | > 100 µM | 27.8 µM | 99.4 µM |  |  | 
9 | NC(=O)c1ccc(-c2c3ccccc3cc3c2ccc2ccccc23)cc1 | 2 µM | 7.08 µM | 1.65 µM | 18.1 µM |  |  | 3.19 µM | > 100 µM | 4.88 µM | 24.5 µM |  |  | 
10 | C/C(=N\n1c(N)c(C#N)c(-c2ccc(Cl)cc2)c(C#N)c1=O)c1cccnc1 | > 100 µM | > 100 µM | > 100 µM | > 100 µM |  |  | > 100 µM | > 100 µM | > 100 µM | > 100 µM |  |  | 
11 | Cc1ccc(S(=O)(=O)ON=C2CC(c3ccccc3)N(C)C(c3ccccc3)C2)cc1 (stereo not drawn) |  |  |  |  |  |  |  |  |  |  | 53.6 µM and 45.9 µM | 64.7 µM and 52.8 µM | 29.9 µM
12 | O=c1c2c(=NCCCN3CCCC3)cc3c(=O)n(CCCN4CCCC4)c(=O)c4c(NCCCN5CCCC5)cc(c(O)n1CCCN1CCCC1)c2c4-3 | 2.67 µM | 9.63 µM | 20.2 µM | > 100 µM | 14.1 µM | 36.1 µM | 2.89 µM | 18.1 µM | 3.66 µM | 36.7 µM |  |  | 
13 | ClCc1ccc(Cn2cnc3ncnc(Cl)c32)cc1 | 1.74 µM | 4.3 µM | 1.81 µM | 4.68 µM | 3.75 µM | 16.9 µM | 1.29 µM | 2.86 µM | 1.58 µM | 2.93 µM |  |  | 
14 | COc1cc([N+](=O)[O-])c2ncccc2c1O | 2.74 µM | 27.3 µM | 13.3 µM | 86.9 µM | 21.2 µM | 87.3 µM | 27 µM | > 100 µM | 6.54 µM | > 100 µM |  |  | 
15 | CN1C=CN(Cc2ccc(-c3ccccn3)nc2)[CH-]1.CN1C=CN(Cc2ccc(-c3ccccn3)nc2)[CH-]1.[Au+3] | > 40.6 µM | > 100 µM | > 70.8 µM | > 100 µM | 2.46 µM | 20.1 µM | 1.17 µM | 3.07 µM | 0.922 µM | > 100 µM |  |  | 
16 | CC(=O)OCC1OC(O[C@@H]2C[C@H]3C(C)(C)[C@H](OC(C)=O)CC[C@]3(C)[C@H]3CC[C@@H]4[C@]5(CC[C@@]4(C)[C@@]32C)O[C@@H]([C@H](O)C(C)(C)O)C[C@@H]5C)C(O)C(O)C1O (stereo partly drawn) | 9.3 µM | 25.4 µM | 16.4 µM | 31.1 µM | 12.1 µM | 24.5 µM | 5.63 µM | 18.4 µM | 3.84 µM | 14.3 µM |  |  | 
17 | COc1ccc2c3c([nH]c2c1)[C@H]1C[C@H]2[C@H](C[C@@H](O)[C@H](OC)[C@H]2C(=O)O)CN1CC3 |  | > 100 µM |  | > 100 µM |  | > 100 µM |  | > 100 µM |  | > 100 µM |  |  | 
18 | COc1cc(SC)ccc1C(=O)N1CCCC(C)C1 (stereo not drawn) | > 100 µM | > 100 µM | 70.6 µM | > 100 µM | > 100 µM | > 100 µM | > 100 µM | > 100 µM | > 100 µM | > 100 µM |  |  | 
19 | Cc1cc(C#Cc2ccccc2)ccc1-n1c(/C=C/c2ccc(O)cc2)nc2ccccc2c1=O | 2.48 µM | 49.5 µM | 3.09 µM | 42 µM |  |  | 2.02 µM | 8.13 µM | 3.24 µM | > 100 µM |  |  | 
20 | C=C1C(=O)O[C@H]2[C@H](OC(C)=O)[C@@H](C)CCC/C(C)=C/CC[C@]3(CO3)[C@H](O)C[C@@H]12 | 14.4 µM | 35.3 µM | 5.92 µM | 35.2 µM | 3.77 µM | 15.4 µM | 2.8 µM | 9.88 µM |  |  |  |  | 
21 | COc1ccccc1OCC(O)CO (stereo not drawn) | > 100 µM | > 100 µM | > 100 µM | > 100 µM | > 100 µM | > 100 µM | > 100 µM | > 100 µM | > 100 µM | > 100 µM |  |  | 
22 | C[C@@H]1CC[C@H]2C(CN3CCN(CC4=C(C(F)(F)F)O[C@@H]5O[C@@]6(C)CC[C@H]7[C@H](C)CC[C@@H]4[C@@]57OO6)CC3)=C(C(F)(F)F)O[C@@H]3O[C@@]4(C)CC[C@@H]1[C@]32OO4 | 1.75 µM | > 47.3 µM | > 100 µM | > 100 µM | 2.53 µM | > 100 µM | 0.458 µM | > 100 µM | 0.351 µM | > 100 µM |  |  | 
